Like-named read-outs stand apart in the source and are kept apart here.
Columns and labels:
[1] = tested on: phospho-ERK in MeWo cells; assay: pERK/tERK ratio in MeWo melanoma model; format: cell-based; details: MeWo (NF1 LoF); 100 nM
Protocol: (§1) Compound (drug) treatment: Cells were plated in a 6-well plate at a density of 250,000-300,000 cells/well in 3 mL media and incubated 37° C. in a humidified, 5% CO2 incubator. […] These solutions were added to the cells (3 uL/well), mixed by swirling the plate, and incubated at 37° C. in a humidified, 5% CO2 incubator for 2 hours.
(§2) Cell lysis and protein estimation: Cells were washed with PBS, and scraped in 50 μL of lysis buffer containing protease and phosphatase inhibitors. Cell lysates were stored at −20° C. Cell lysates were thawed and spun at 12,000 rpm for one minute, 3 ul of the supernatant was added to 500 μL of Coomassie blue reagent following by 500 μL of water. […] Protein standards were used (0-20 mg/mL) to calculate protein concentrations of test samples.
(§3) All samples were heated at 95° C. for 5 minutes, cooled to room temperature and spun down. […] After the run, gel was removed and protein transfer was done using iBlot for 7 minutes, as per manufacturer's recommendations. After the transfer, nitrocellulose membrane was incubated on a shaker in 5 mL of blocking buffer at room temperature for 1 hr. The blot was then incubated overnight on a shaker in 5 ml of blocking buffer containing 0.2% Tween-20 and primary antibody, at room temperature. Anti-phospho-STAT3 antibody was used at a dilution of 1:500, the other 3 primary antibodies were used at a dilution of 1:1000.
(§4) Next day, the blot was washed 3 times for 10 min each with 10 mL of TBST followed by incubation on a shaker in 5 ml of blocking buffer containing 0.2% Tween-20 and 0.5 ul of the IRDye labeled secondary antibodies, diluted 1:10000, at room temperature for 1 hr. The blot was then washed 3 times for 10 min each with 10 mL of TBST and dried between sheets of paper towels. Imaging was done using LICOR's Odyssey imaging system, quantitation was done using their software, Image Studio version 3.1.
(§5) The nine models are described in Table 16.

[2] = tested on: phospho-MEK in SK-MEL-28 cells; assay: pMEK/tMEK ratio in SK-MEL-28 melanoma model; format: cell-based; details: SK-MEL-28 (BRAF p.V600E); 100 nM
Protocol: as §1, §2, §3, §4, §5

[3] = tested on: phospho-MEK in A375 cells; assay: pMEK/tMEK ratio in A375 melanoma model; format: cell-based; details: A375 (BRAF p.V600E); 100 nM
Protocol: as §1, §2, §3, §4, §5

[4] = tested on: phospho-MEK in SK-MEL-2 cells; assay: pMEK/tMEK ratio in SK-MEL-2 melanoma model; format: cell-based; details: SK-MEL-2 (NRAS p.Q61R); 100 nM
Protocol: as §1, §2, §3, §4, §5

[5] = tested on: phospho-MEK in Hs852.T cells; assay: pMEK/tMEK ratio in Hs852.T melanoma model; format: cell-based; details: Hs852.T (NRAS p.G12V); 100 nM
Protocol: as §1, §2, §3, §4, §5

[6] = tested on: phospho-MEK in SK-MEL-30 cells; assay: pMEK/tMEK ratio in SK-MEL-30 melanoma model; format: cell-based
Protocol: as §1, §2, §3, §4, §5

[7] = tested on: phospho-ERK in Hs852.T cells; assay: pERK/tERK ratio in Hs852.T melanoma model; format: cell-based; details: Hs852.T (NRAS p.G12V); 100 nM
Protocol: as §1, §2, §3, §4, §5

[8] = tested on: phospho-ERK in SK-MEL-28 cells; assay: pERK/tERK ratio in SK-MEL-28 melanoma model; format: cell-based; details: SK-MEL-28 (BRAF p.V600E); 100 nM
Protocol: as §1, §2, §3, §4, §5

[9] = tested on: phospho-MEK in MEL-JUSO cells; assay: pMEK/tMEK ratio in MEL-JUSO melanoma model; format: cell-based; details: MEL-JUSO (HRAS p.G13D, NRAS p.Q61L); 100 nM
Protocol: as §1, §2, §3, §4, §5

[10] = tested on: phospho-ERK in SK-MEL-2 cells; assay: pERK/tERK ratio in SK-MEL-2 melanoma model; format: cell-based; details: SK-MEL-2 (NRAS p.Q61R); 100 nM
Protocol: as §1, §2, §3, §4, §5

[11] = tested on: phospho-ERK in MEL-JUSO cells; assay: pERK/tERK ratio in MEL-JUSO melanoma model; format: cell-based; details: MEL-JUSO (HRAS p.G13D, NRAS p.Q61L); 100 nM
Protocol: as §1, §2, §3, §4, §5

[12] = tested on: phospho-ERK in MM415 cells; assay: pERK/tERK ratio in MM415 melanoma model; format: cell-based; details: MM415 (NRAS p.Q61L); 100 nM
Protocol: as §1, §2, §3, §4, §5

[13] = tested on: phospho-ERK in SK-MEL-30 cells; assay: pERK/tERK ratio in SK-MEL-30 melanoma model; format: cell-based; details: SK-MEL-30 (NRAS p.Q61K); 100 nM
Protocol: as §1, §2, §3, §4, §5

[14] = Liver microsome stability (% remaining at 1 hour), beagle dog; format: in vitro ADME; details: 2 μM
Protocol: (§6) Materials and Methods: Individual stock solutions of Test Articles (TA) were prepared at 30 mM in DMSO and were further diluted to 2 mM in DMSO. […] Prior to use in the assay, the 2 mM stock solutions were diluted 10-fold with acetonitrile. The acetonitrile diluted stocks were diluted 1:50 into warm (37° C.) 0.1 M potassium phosphate, pH 7.4, containing 2.0 mM NADPH (2× final assay concentration). Frozen liver microsomes were quick thawed in a 37° C. water bath and then placed on ice. […] The plate was incubated with gentle shaking at 37° C. Duplicate 30 μL aliquots were removed immediately after compound addition (To: time zero) and at 60 minutes. […] The quenched samples were gently mixed and were stored in a −20° C. freezer for at least 30 minutes. […]
(§7) Data Collection and Calculations: Analyst (AB Sciex) and Acquity (Waters) were used for data acquisition. Results were calculated using Microsoft Excel.
(§8) Peak area ratios for IS-normalized test article counts were used to calculate the percent remaining relative to the time zero (T0) value. As appropriate, results were plotted and further analyzed to calculate half-life (T1/2) and CLint values. […]
(§9) Results were plotted [ln (% remaining) vs. incubation time] and further analyzed to calculate half-life (T1/2) values: […]

[15] = Plasma stability, mouse plasma (Balb/c; Table 5 head CD-1 Mouse); format: in vitro ADME; details: 2 μM
[16] = Liver microsome stability (% remaining at 1 hour), CD-1 mouse; format: in vitro ADME; details: 2 μM
Protocol: as §6, §7, §8, §9

in vitro = details: human; for Papp A→B at 2 h, 10 μM: Caco-2, Mean Papp A-B (10^-6 cm/s); for Papp B→A at 2 h, 10 μM: Caco-2, Mean Papp B-A (10^-6 cm/s)
[17] = Liver microsome stability (% remaining at 1 hour), human; format: in vitro ADME; details: 2 μM
Protocol: as §6, §7, §8, §9

Structure (SMILES)	pERK/tERK ratio normalized to DMSO [1]	pMEK/tMEK ratio normalized to DMSO [2]	pMEK/tMEK ratio normalized to DMSO [3]	pMEK/tMEK ratio normalized to DMSO [4]	pMEK/tMEK ratio normalized to DMSO [5]	pERK/tERK ratio normalized to DMSO [7]	pERK/tERK ratio normalized to DMSO [8]	pMEK/tMEK ratio normalized to DMSO [9]	pERK/tERK ratio normalized to DMSO [10]	pERK/tERK ratio normalized to DMSO [11]	pERK/tERK ratio normalized to DMSO [12]	pERK/tERK ratio normalized to DMSO [13]	Papp A→B at 2 h, 10 μM (in vitro) [×10⁻⁶ cm/s]	Papp B→A at 2 h, 10 μM (in vitro) [×10⁻⁶ cm/s]	also measured
CNS(=O)(=O)Nc1cccc(Cc2c(CN(C)C)c3ccc(OC(=O)N(C)C)cc3oc2=O)c1Cl [Compound 274, 3-(2-chloro-3-((N-methylsulfamoyl)amino)benzyl)-4-((dimethylamino)methyl)-2-oxo-2H-chromen-7-yl dimethylcarbamate]	0.519	0.763	0.585	0.518	0.672	0.731	0.745	0.548	0.439	0.631	0.423	0.521	–	–	pMEK/tMEK ratio normalized to DMSO ([6]; SK-MEL-30 (NRAS p.Q61K), 100 nM): 0.609
Cn1cnc2c(F)c(Nc3ccc(Br)cc3Cl)c(C(=O)NOCCO)cc21 [Reference-1, Selumetinib]	0.196	0.984	0.962	2.055	4.945	0.293	0.152	2.988	0.191	0.179	0.114	0.163	8.83	28.2	Beagle Dog (% Reamining @1 hour) ([14]; liver microsomes, 1 hour): 97.5%; CD-1 Mouse (% Reamining @2 hour) ([15]; CD-1, mouse, 2 h, pH 7.4): 104.8%; pMEK/tMEK ratio normalized to DMSO [6]: 2.177; CD-1 Mouse (% Reamining @1 hour) ([16]; liver microsomes, 1 hour): 13.9%; efflux ratio at 2 h, 10 μM (in vitro; Caco-2, Mean (B-A/A-B) (Efflux Ratio)): 3.19; Human (% Reamining @1 hour) ([17]; liver microsomes, 1 hour): 75.8%
CNS(=O)(=O)Nc1nccc(Cc2c(C)c3ccc(Oc4ncccn4)cc3oc2=O)c1F [Reference-2, reference compound]	–	–	–	–	–	–	–	–	–	–	–	–	18.1	20.9	Beagle Dog (% Reamining @1 hour) ([14]; beagle, dog, 1 h, pH 7.4): 111.6%; CD-1 Mouse (% Reamining @2 hour) ([15]; plasma, 2 hour): 92.9%; CD-1 Mouse (% Reamining @1 hour) ([16]; CD-1, mouse, 1 h, pH 7.4): 96.0%; Human (% Reamining @1 hour) ([17]; human, 1 h, pH 7.4): 107.1%
